Data on nine molecules can be found in patent US20240400542A1 (University of Virginia Patent Foundation, priority 2021, published 2024).

Series [1] deals with T1, PFKL (Homo sapiens, UniProt P17858).
T1 construct: endogenous in cells; host or cells: HEK293T
T1 sequence (P17858 1-780): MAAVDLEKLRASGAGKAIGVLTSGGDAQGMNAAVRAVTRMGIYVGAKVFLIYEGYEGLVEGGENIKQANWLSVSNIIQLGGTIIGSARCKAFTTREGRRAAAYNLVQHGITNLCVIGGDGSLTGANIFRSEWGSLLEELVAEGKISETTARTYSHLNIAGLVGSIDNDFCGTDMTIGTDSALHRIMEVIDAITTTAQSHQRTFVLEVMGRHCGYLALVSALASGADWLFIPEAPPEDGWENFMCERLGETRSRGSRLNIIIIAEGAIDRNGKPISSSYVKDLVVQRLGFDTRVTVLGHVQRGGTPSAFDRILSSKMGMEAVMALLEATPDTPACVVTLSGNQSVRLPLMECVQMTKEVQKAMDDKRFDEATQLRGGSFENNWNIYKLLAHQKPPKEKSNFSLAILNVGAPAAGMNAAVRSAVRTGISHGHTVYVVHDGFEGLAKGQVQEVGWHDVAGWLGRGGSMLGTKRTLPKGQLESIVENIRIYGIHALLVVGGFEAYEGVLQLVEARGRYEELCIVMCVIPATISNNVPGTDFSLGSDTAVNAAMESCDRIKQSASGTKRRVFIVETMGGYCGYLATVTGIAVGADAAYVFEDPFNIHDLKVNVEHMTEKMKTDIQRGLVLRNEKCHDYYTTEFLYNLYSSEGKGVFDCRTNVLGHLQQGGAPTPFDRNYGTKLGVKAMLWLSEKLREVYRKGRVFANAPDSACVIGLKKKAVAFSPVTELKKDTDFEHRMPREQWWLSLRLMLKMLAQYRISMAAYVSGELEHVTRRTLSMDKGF
The experiment in a line: In situ gel-based ABPP, blockade of TH211 probe labeling in HEK293T cells. The class given is cell-based. Conditions: then 25 μM TH211 2 h; for probinding activity (blockade of TH211 probe labeling), protein at ˜80 molecular weight: HEK293T cells in situ, 1 μM compound 1 h. The procedure:
HEK293T cells were incubated in 10 cm petri dishes with DMEM medium supplemented with 10% fetal bovine serum and 1% L-glutamine until the confluency reached about 90%. Aspirate the medium and then add serum-free-medium (SFM) with vehicle only (DMSO) or SuTEx compounds in DMSO, which afforded final concentrations of 0.1% DMSO. After incubation at 37° C. for 1 hrs in CO2 incubator, the medium was aspirated and 25 μM of probe TH211 in SFM was added. After incubation at 37° C. for 2 hrs, the medium was aspirated and the cells were washed off in cold PBS. Centrifuge at 400×g for 5 min to pellet and resuspend pellet again in PBS for 2× total washes. The cell pellets were resuspended and lysed by sonication (1 sec pulse, 20% amplitude, 3 times) in PBS in the presence of EDTA-free protease inhibitor cocktail tablet (Pierce Biotechnology, Waltham, Massachusetts, United States of America). The cell lysates were subject to ultracentrifugation (100,000×g, 45 min at 4° C.) to separate the cytosolic fraction in the supernatant and the membrane fraction as a pellet. Protein concentrations in soluble fraction were measured by the Bio-Rad DC protein assay (Bio-Rad Laboratories, Hercules, California, United States of America). Proteome aliquots (2 mg/mL, 50 μL) were conjugated with fluorophore which was accomplished by copper-catalyzed azide-alkyne cycloaddition (CuAAC) with rhodamine-azide (TAMRA-azide, 1.25 mM, 1 μL, final concentration of 25 μM) in the presence of tris(2-carboxyethyl)phosphine (TCEP, 50 mM fresh in water, 1 μL, final concentration of 1 mM), tris[(1-benzyl-1H-1,2,3-triazol-4-yl)methyl]amine (TBTA, 1.7 mM in 4:1 t-butanol/DMSO, 3 μL, final concentration of 100 μM) and CuSO4 (50 mM, 1 μL, final concentration of 1 mM). After 1 hr incubation at room temperature, reactions were quenched by adding 4×SDS-PAGE loading buffer and beta-mercaptoethanol (17 μL) and samples were resolved by SDS-PAGE followed by in-gel fluorescence scanning.
(§1) Some SuTEx analogues with RF001 fragment were synthesized and characterized. The in situ competition assay was then conducted, during which HEK293T cells were treated with 1 μM of a SuTEx analogue for 1 h, followed by treatment with 25 μM of TH211 as the probe for 2 h. […] The analogues with electron-donating groups like methyl or methoxy on the para position of phenyl performed better than those with electron-withdrawing groups. Under the same condition, the IC5o of TH220 was determined as 305.6 nM. The identity of the bound protein was studied by LC-MS/MS. The assay results indicated PFKL as the potential target and that binding sites include Y674 and K677, since the ratio trends are the same as that found in the in situ competition assay. To study selective targeting of PFKL by the series of SuTEx analogues, Fag-PFKL, Flag-PFKM, and Flag-PFKP were overexpressed in HEK293T cells and in vitro competition assays were performed for comparison. […] To optimize these SuTEx ligands, another series of derivatives were synthesized and evaluated with TH233 as a negative control and TH220 as positive control, respectively. […] Compared to TH220, the probinding activity of XJ-2-103 with trifluoromethyl group at para position of the phenyl ring is not as good, which is consistent with the results shown in FIG. 18A.

The target in series [2] is T1, PFKL. Kind of series: SILAC competitive chemical proteomic assay (TH211 probe, LC-MS/MS). The class given is cell-based. Conditions: HEK293T in situ, vehicle (light) vs inhibitor 2 μM (heavy) 1 hr, then TH211 50 μM 2 h; protein/site not given. As to the method: The light and heavy proteomes (2.3 mg/mL, 432 μL) prepared from HEK293T cells that were pretreated in situ with vehicle (DMSO) or the inhibitor (2 μM), respectively, at 37° C. for 1 hr followed by probe TH211 treatment (50 μM) for 2 h, were directly were subjected to click reaction with the desthiobiotin-PEG3-azide (10 mM in DMSO, 10 μL, final concentration 200 μM) in the presence of TCEP (50 mM, 10 μL), TBTA (1.7 mM, 33 μL) and CuSO4 (50 mM, 10 μL) at room temperature for 1 hr. The light and the heavy samples were mixed in the chloroform-methanol extraction step. The subsequent steps including reduction with dithiothreitol, alkylation with iodoacetamide, digestion with Trypsin/Lys-C, enrichment with avidin beads were conducted as previously described^26.
as §1

Series [3] can be described thus: HPLC solution reactivity of probe with p-cresol (tyrosine mimetic). Conditions: UV 254 nm, TMG base, 0° C., longest time point tested 90 min. The class given is physicochemical. As to the method:
(§2) Briefly, reaction progress of KY-26 or XO44 with p-cresol or n-butylamine (16.5 μmol, 3.3 eq.) in the presence of TMG base (1,1,3,3-tetramethylguanidine, 1.1 eq) was evaluated by monitoring probe consumption and quantified based on the signal from the caffeine standard using HPLC. Synthetic peptide reactions were conducted by mixing the peptide (Ac-RLNERHYGGLTGLNK-NH2, 50 nmol, 1.0 eq.) with 1.1 eq of TMG. KY-26 (550 nmol, 11.0 eq) was added to the mixture and the reaction was kept at 37° C. until the reaction achieved at least 50% conversion.
(§3) More particularly, an acetonitrile solution of p-cresol or n-butylamine (16.5 μmol, 3.3 eq.) was mixed with 1.1 eq of TMG. KY-26 or XO44 in ACN:DMF=6:4 (5 μmol, 1.0 eq.) was added to the mixture and the reaction was kept at 0° C. The final molarity for KY-26 or XO44 is 10 mM. Aliquots (50 μl) of the reaction were taken and quenched by adding acetic acid (0.5 M final, 5.0 μmol) and caffeine standard (0.05 M final, 0.5 μmol) at ten-minute intervals for 1.5 hrs. 1.0 μL sample was injected and analyzed by reverse-phase HPLC with mobile phases A (H2O, 0.1% AcOH) and B (CH3CN, 0.1% AcOH) with a gradient of 0-15-85-100% B in 0-0.5-6.5-7 min. UV measurements taken at 254 nm. Reaction progress was evaluated by monitoring KY-26 or XO44 consumption and quantified based on the signal from the caffeine standard. […]

A short description of series [4]: HPLC solution reactivity of probe with n-butylamine (lysine mimetic). The class given is physicochemical. Conditions: TMG base, 0° C., KY-26 compared with p-cresol. The procedure:
as §2, §3

Bounds are passed on as bounds.

For orientation: IC50 means the concentration that inhibits the measured activity by half. For the molecule `COc1ccc(S(=O)(=O)n2cc(CCN3CCC(=C(c4ccc(F)cc4)c4ccc(F)cc4)CC3)nn2)cc1`, the IC50 on PFKL [1] (HEK293T cells, compound 1 h, read-out: IC50 against PFKL, in situ TH211 chemical proteomic assay) was determined as 306 nM. On PFKL [2], the “SILAC ratios (SR) from competitive chemical proteomic assay” value (shortened to “SILAC ratios (SR)”) was 8.41. Consider `Cc1ccc(S(=O)(=O)n2cc(CCN3CCN(C(c4ccc(F)cc4)c4ccc(F)cc4)CC3)nn2)cc1` [TH208, 1-(Bis(4-fluorophenyl)methyl)-4-(2-(1-tosyl-1H-1,2,3-triazol-4-yl)ethyl)piperazine], for which the “SILAC ratios (SR)” value at PFKL [2] is listed as 1.04. As for `O=S(=O)(c1ccc(F)cc1)n1cc(CCN2CCC(=C(c3ccc(F)cc3)c3ccc(F)cc3)CC2)nn1` [TH221, 4-(Bis(4-fluorophenyl)methylene)-1-(2-(1-((4-fluorophenyl)sulfonyl)-1H-1,2,3-triazol-4-yl)ethyl)piperidine], at PFKL [2], the “SILAC ratios (SR)” value is listed as 2.48.

With `O=S(=O)(C1CC1)n1cc(CCN2CCC(=C(c3ccc(F)cc3)c3ccc(F)cc3)CC2)nn1` [TH223, 4-(bis(4-fluorophenyl)methylene)-1-(2-(1-(cyclopropylsulfonyl)-1H-1,2,3-triazol-4-yl)ethyl)piperidine], the “SILAC ratios (SR)” value at PFKL [2] was found to be 0.95. As for `O=S(=O)(c1ccc2c(c1)OCCO2)n1cc(CCN2CCC(=C(c3ccc(F)cc3)c3ccc(F)cc3)CC2)nn1` [XJ-2-77, 4-(Bis(4-fluorophenyl)methylene)-1-(2-(1-((2,3-dihydrobenzo[b][1,4]dioxin-6-yl)sulfonyl-)-1H-1,2,3-triazol-4-yl)ethyl)piperidine], the “probinding activity (blockade of TH211 probe labeling), protein at ˜80 molecular weight” value at PFKL [1] is “good probinding activity”. For the molecule `O=S(=O)(c1ccc2c(c1)OCO2)n1cc(CCN2CCC(=C(c3ccc(F)cc3)c3ccc(F)cc3)CC2)nn1` [XJ-2-87], at PFKL [1], the “probinding activity (blockade of TH211 probe labeling), protein at ˜80 molecular weight” value is “good probinding activity”. The same measure, in the same setting: to `O=S(=O)(c1ccc2c(c1)OC(F)(F)O2)n1cc(CCN2CCC(=C(c3ccc(F)cc3)c3ccc(F)cc3)CC2)nn1` [XJ-2-115, 4-(Bis(4-fluorophenyl)methylene)-1-(2-(1-((2,2-difluorobenzo[d][1,3]dioxol-5-yl)sulfonyl)-1H-1,2,3-triazol-4-yl)ethyl)piperidine] belongs “good probinding activity”; to `COc1ccccc1S(=O)(=O)n1cc(CCN2CCC(=C(c3ccc(F)cc3)c3ccc(F)cc3)CC2)nn1` [XJ-2-141, 4-(Bis(4-fluorophenyl)methylene)-1-(2-(1-((2-methoxyphenyl)sulfonyl)-1H-1,2,3-triazol-4-yl)ethyl)piperidine], “good probinding activity”.

Consider `C#CCNC(=O)c1cc(Nc2cc(C3CC3)[nH]n2)nc(N2CCN(Cc3ccc(S(=O)(=O)F)cc3)CC2)n1` [XO44, reference compound], for which the “time to near-complete depletion of probe in reaction with p-cresol” value in series [3] was over 90 min. Besides, in series [4], the “reaction of probe with n-butylamine” value is on record as “minimal reaction”.
